# According to US20260199236A1, “PERFLUORINATED MICELLES AND MEDICAL USES THEREOF” (COMMISSARIAT A L'ENERGIE ATOMIQUE ET AUX ENERGIES …, priority 2022, published 2026):
# Columns and labels:
# [1] = Oxygen content decay of O2-saturated dispersions on ambient air equilibration; conditions: first-order fit, SDS 9 mM, Triton X-100 3.8 mM; for Release rate (oxygen): PFTD-PEG 3.8 mM
# Text: Another commonly used method consists in measuring the rate of decrease of the oxygen concentration of a given micellar solution from O2-saturation to equilibrium with ambient air. In the case of perfluorinated micelles, any observed difference in deoxygenation rate can be directly related the diffusion of O2 from the perfluorinated core to the aqueous medium while oxygen dissolved in the saturated dispersant (i.e. water) escapes to the atmosphere.
# To assess the dioxygen release capacity of PFTD-PEG micelles, colloids (4 mL, c=3.8 mM and 7.6 mM) were pre-saturated with dioxygen under agitation in a sealed round-bottom flask. After saturation, agitation was stopped and the PFTD-PEG micellar suspension was left to equilibrate with ambient air. Evolution of dioxygen concentration in the medium over time was recorded using a dissolved dioxygen sensor.
# In this equation, y0 corresponds to the value of y at t=0 s while A corresponds to the amplitude of the curve such that A=Plateau−y0. This model provides essential parameters such as the oxygen half-life and the oxygen release rate from the different micellar suspensions.
# [2] = Oxygen release from O2-saturated colloid injected into degassed water; assay type: physicochemical; conditions: 200 μL of 7.6 mM surfactant colloid into degassed water
# Protocol: To this end, a small volume of oxygen-saturated micelle colloid was injected with variable PFTD-PEG concentrations into a large volume of degassed water and the release of oxygen was monitored by continuous electrochemical monitoring over time (FIG. 3A). From this set of experiments, a clear correlation between the micelle concentration and the amount of released oxygen was observed. In fact, 15 min after addition of 200 μL of a 5, 10, or 20 mg mL^−1 PFTD-PEG colloid to 100 mL of degassed water, the oxygen concentration reached values of 2.9, 4.3, and 5.6 μM, respectively. As a reference, the oxygen concentration reached only 1.1 μM when the same volume of oxygen-saturated water was added instead of the micelle colloid. The effect of the fluorinated PFTD-PEG micelles on oxygen delivery was compared to that of micelles obtained from commonly used amphiphiles, namely sodium dodecyl sulfate (SDS) and Triton X100.
Molecule,Release rate (oxygen) [1],oxygen concentration [2],t1/2 (oxygen half-life) ([1]; PFTD-PEG 3.8 mM (10 mg mL^−1))
"CCCCCCCCCCCCOS(=O)(=O)[O-].[Na+] [SDS, sodium dodecyl sulfate]",2.61 ± 0.03 10^−4 s^−1,2.7 mM,–
Triton X-100,2.49 ± 0.04 10^−4 s^−1,3.6 mM,46.422 ± 0.832 min
